The values that follow come from patent publication US20150291598A1 (NOVARTIS AG, priority 2012, published 2015).

Structures are written as SMILES.

For the first test, the system named is P. falciparum (NF54 or 3D7 strain). As to the kind of experiment: Assay for P. falciparum proliferation in infected human blood cells (SYBR Green). The settings on record: NF54 or 3D7 infected human erythrocytes, 72 hours; read-out: EC50 (nM), inhibitory efficacy in delaying P. falciparum proliferation in infected human blood cells. It counts as cell-based, Plasmodium falciparum. A digest of the protocol: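 Infected erythrocytes (NF54 or 3D7; final 2.5% hematocrit, 0.3% parasitemia) were incubated with compounds for 72 h at 37 °C in low oxygen (3% O2, 4% CO2, 93% N2).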
Consider `CN(C(=O)c1cn2c(-c3ccc4c(cnn4C)c3)cnc2cn1)c1ccc(F)cc1` [Compound 106, N-(4-fluorophenyl)-N-methyl-3-(1-methyl-1H-indazol-5-yl)imidazo[1,2-a]pyrazine-6-carboxamide], for which the EC50 came out at 24 nM.

On to `CN(C(=O)c1cn2c(-c3ccc4c(cnn4C)c3)cnc2cn1)c1ccc(F)cc1` [Compound 107, N-(4-fluorophenyl)-N-methyl-3-(1-methyl-1H-indazol-5-yl)imidazo[1,2-a]pyrazine-6-carboxamide], for which the EC50 worked out at 218 nM.

Still in this test, the particulars now being: Plasmodium falciparum, Erythrocyte, 72 h, NF54 or 3D7 infected human erythrocytes, 72 hours; read-out: EC50 (nM), inhibitory efficacy in delaying P. falciparum proliferation in infected human blood cells.
With `CN(C(=O)c1cn2c(-c3ccc(C(F)(F)F)cc3)cnc2cn1)c1ccc(Cl)nc1` [Compound 78, N-(6-chloropyridin-3-yl)-N-methyl-3-[4-(trifluoromethyl)phenyl]imidazo[1,2-a]pyrazine-6-carboxamide], the EC50 was 181 nM.

For the compound `CN(C(=O)c1cn2c(-c3ccc(C(F)(F)F)cc3)cnc2cn1)c1ccc(F)nc1` [Compound 79, N-(6-fluoropyridin-3-yl)-N-methyl-3-[4-(trifluoromethyl)phenyl]imidazo[1,2-a]pyrazine-6-carboxamide], the EC50 was found to be 214 nM.

Regarding `Cc1ccc(-c2cnc3cnc(C(=O)N(C)c4ccc(Cl)nc4)cn23)cc1` [Compound 80, -(6-chloropyridin-3-yl)-N-methyl-3-(4-methylphenyl)imidazo[1,2-a]pyrazine-6-carboxamide], the EC50 came to 258 nM.

Turning to `CN(C(=O)c1cn2c(-c3ccc(Cl)cc3)cnc2cn1)c1ccc(Cl)nc1` [Compound 81, -(4-chlorophenyl)-N-(6-chloropyridin-3-yl)-N-methylimidazo[1,2-a]pyrazine-6-carboxamide], the EC50 came out at 382 nM.

On to `CN(C(=O)c1cn2c(-c3ccc(N4CCCC4)nc3)cnc2cn1)c1ccc(C#N)cc1` [Compound 82, N-(4-cyanophenyl)-N-methyl-3-[6-(pyrrolidin-1-yl)pyridin-3-yl]imidazo[1,2-a]pyrazine-6-carboxamide], for which the EC50 amounted to 2340 nM.

Turning to `CN(C(=O)c1cn2c(-c3ccc4c(cnn4C)c3)cnc2cn1)c1ccc(C#N)cn1` [Compound 83, N-(5-cyanopyridin-2-yl)-N-methyl-3-(1-methyl-1H-indazol-5-yl)imidazo[1,2-a]pyrazine-6-carboxamide], the EC50 stood at 1570 nM.

With `CN(C(=O)c1cn2c(-c3ccc4c(ccn4C)c3)cnc2cn1)c1ccc(Cl)nc1` [Compound 84, N-(6-chloropyridin-3-yl)-N-methyl-3-(1-methyl-1H-indol-5-yl)imidazo[1,2-a]pyrazine-6-carboxamide], the EC50 came out at 1280 nM.

For the compound `CN(C(=O)c1cn2c(-c3ccc(OC(F)F)cc3)cnc2cn1)c1ccc(C#N)cn1` [Compound 85, N-(5-cyanopyridin-2-yl)-3-[4-(difluoromethoxy)phenyl]-N-methylimidazo[1,2-a]pyrazine-6-carboxamide], the EC50 came out at 1100 nM.

Take `CN(C(=O)c1cn2c(-c3ccc(C(F)(F)F)cc3)cnc2cn1)c1cccc(F)n1` [Compound 86, N-(6-fluoropyridin-2-yl)-N-methyl-3-[4-(trifluoromethyl)phenyl]imidazo[1,2-a]pyrazine-6-carboxamide]: the EC50 is 2010 nM.

`CN(C(=O)c1cn2c(-c3ccc(-n4cccn4)cc3)cnc2cn1)c1ccc(C#N)cc1` [Compound 87, N-(4-cyanophenyl)-N-methyl-3-[4-(1H-pyrazol-1-yl)phenyl]imidazo[1,2-a]pyrazine-6-carboxamide]: the EC50 is 104 nM.

As for `COc1ccc(N(C)C(=O)c2cn3c(-c4ccc(C(F)(F)F)cc4)cnc3cn2)cn1` [Compound 88, N-(6-methoxypyridin-3-yl)-N-methyl-3-[4-(trifluoromethyl)phenyl]imidazo[1,2-a]pyrazine-6-carboxamide], the EC50 is 1740 nM.

On to `CN(C(=O)c1cn2c(-c3ccc(C(F)(F)F)cc3)cnc2cn1)c1ccc(C#N)cn1` [Compound 89, N-(5-cyanopyridin-2-yl)-N-methyl-3-[4-(trifluoromethyl)phenyl]imidazo[1,2-a]pyrazine-6-carboxamide], for which the EC50 was determined as 2070 nM.

For the compound `COc1ccc(-c2cnc3cnc(C(=O)N(C)c4ccc(C#N)cc4)cn23)cn1` [Compound 90, N-(4-cyanophenyl)-3-(6-methoxypyridin-3-yl)-N-methylimidazo[1,2-a]pyrazine-6-carboxamide], the EC50 worked out at 826 nM.

With `CN(C(=O)c1cn2c(-c3ccc(C(F)(F)F)cc3)cnc2cn1)c1cnc(Cl)cn1` [Compound 91, -(5-chloropyrazin-2-yl)-N-methyl-3-[4-(trifluoromethyl)phenyl]imidazo[1,2-a]pyrazine-6-carboxamide], the EC50 was 4300 nM.

For the compound `CC(C)N(C(=O)c1cn2c(-c3ccc(C(F)(F)F)cc3)cnc2cn1)c1ccc(C#N)cc1` [Compound 92, N-(4-cyanophenyl)-N-(propan-2-yl)-3-[4-(trifluoromethyl)phenyl]imidazo[1,2-a]pyrazine-6-carboxamide], the EC50 turned out to be 349 nM.

For `CN(C(=O)c1cn2c(-c3ccc(C(F)(F)F)cc3)cnc2cn1)c1ncc(Cl)cn1` [Compound 93, N-(5-chloropyrimidin-2-yl)-N-methyl-3-[4-(trifluoromethyl)phenyl]imidazo[1,2-a]pyrazine-6-carboxamide], the EC50 was 4640 nM.

Regarding `CN(C(=O)c1cn2c(-c3ccc(C(F)(F)F)cc3)cnc2cn1)c1ccc(Cl)nn1` [Compound 94, N-(6-chloropyridazin-3-yl)-N-methyl-3-[4-(trifluoromethyl)phenyl]imidazo[1,2-a]pyrazine-6-carboxamide], the EC50 was more than 10000 nM.

`CN(C(=O)c1cn2c(-c3ccc(C(F)F)cc3)cnc2cn1)c1ccc(C#N)cn1` [Compound 95, N-(5-cyanopyridin-2-yl)-3-[4-(difluoromethyl)phenyl]-N-methylimidazo[1,2-a]pyrazine-6-carboxamide]: the EC50 was found to be 1050 nM.

Turning to `CN(C(=O)c1cn2c(-c3ccc(C(F)(F)F)cc3)cnc2cn1)c1ccc(Br)nn1` [Compound 96, N-(6-bromopyridazin-3-yl)-N-methyl-3-[4-(trifluoromethyl)phenyl]imidazo[1,2-a]pyrazine-6-carboxamide], the EC50 worked out at 9990 nM.

As to `CN(C(=O)c1cn2c(-c3ccc(C(F)(F)F)cc3)cnc2cn1)c1cnc(Br)cn1` [Compound 97, N-(5-bromopyrazin-2-yl)-N-methyl-3-[4-(trifluoromethyl)phenyl]imidazo[1,2-a]pyrazine-6-carboxamide], the EC50 is 4510 nM.

Regarding `CN(C(=O)c1cn2c(-c3ccc(C(N)=O)cc3)cnc2cn1)c1ccc(C#N)cn1` [Compound 98, 3-(4-carbamoylphenyl)-N-(5-cyanopyridin-2-yl)-N-methylimidazo[1,2-a]pyrazine-6-carboxamide], the EC50 stood at 1500 nM.

Regarding `CN(C(=O)c1cn2c(-c3ccc(C(F)(F)F)cc3)cnc2cn1)c1ccccn1` [Compound 99, N-methyl-N-(pyridin-2-yl)-3-[4-(trifluoromethyl)phenyl]imidazo[1,2-a]pyrazine-6-carboxamide], the EC50 was determined as 3880 nM.

On to `COc1ccc(-c2cnc3cnc(C(=O)N(C)c4ccc(Cl)nc4)cn23)cc1` [Compound 100, N-(6-chloropyridin-3-yl)-3-(4-methoxyphenyl)-N-methylimidazo[1,2-a]pyrazine-6-carboxamide], for which the EC50 came to 297 nM.

`CN(C(=O)c1cn2c(-c3ccc(C(F)(F)F)cc3)cnc2cn1)c1ccc(F)cc1` [Compound 101, N-(4-fluorophenyl)-N-methyl-3-[4-(trifluoromethyl)phenyl]imidazo[1,2-a]pyrazine-6-carboxamide]: the EC50 worked out at 33 nM.

On to `CN(C(=O)c1cn2c(-c3ccc(OC(F)F)cc3)cnc2cn1)c1ccc(Cl)cc1` [Compound 102, N-(4-chlorophenyl)-3-[4-(difluoromethoxy)phenyl]-N-methylimidazo[1,2-a]pyrazine-6-carboxamide], for which the EC50 amounted to 53 nM.

In the case of `CN(C(=O)c1cn2c(-c3ccc(Cl)cc3)cnc2cn1)c1ccc(F)cc1` [Compound 103, 3-(4-chlorophenyl)-N-(4-fluorophenyl)-N-methylimidazo[1,2-a]pyrazine-6-carboxamide], the EC50 was 51 nM.

As for `CN(C(=O)c1cn2c(-c3ccc(C(N)=O)cc3)cnc2cn1)c1ccc(C#N)cc1` [Compound 104, 3-(4-carbamoylphenyl)-N-(4-cyanophenyl)-N-methylimidazo[1,2-a]pyrazine-6-carboxamide], the EC50 was found to be 57 nM.

In the case of `CN(C(=O)c1cn2c(-c3ccc(C(F)(F)F)cc3)cnc2cn1)c1ccc(F)c(F)c1` [Compound 105, N-(3,4-difluorophenyl)-N-methyl-3-[4-(trifluoromethyl)phenyl]imidazo[1,2-a]pyrazine-6-carboxamide], the EC50 came out at 41 nM.

Turning to `Cc1ccc(-c2cnc3cnc(C(=O)N(C)c4ccc(F)cc4)cn23)cc1` [Compound 108, N-(4-fluorophenyl)-N-methyl-3-(4-methylphenyl)imidazo[1,2-a]pyrazine-6-carboxamide], the EC50 was found to be 110 nM.

For `CN(C(=O)c1cn2c(-c3ccc(Cl)cc3)cnc2cn1)c1ccc(Cl)cc1` [Compound 109, N,3-bis(4-chlorophenyl)-N-methylimidazo[1,2-a]pyrazine-6-carboxamide], the EC50 was determined as 120 nM.

`COc1ccccc1N(C)C(=O)c1cn2c(-c3ccc(C(F)(F)F)cc3)cnc2cn1` [Compound 110, N-(2-methoxyphenyl)-N-methyl-3-[4-(trifluoromethyl)phenyl]imidazo[1,2-a]pyrazine-6-carboxamide]: the EC50 was determined as 188 nM.

In the case of `O=C(c1cn2c(-c3ccc(C(F)(F)F)cc3)cnc2cn1)N1CCCc2cc(F)ccc21` [Compound 111, 6-fluoro-1-({3-[4-(trifluoromethyl)phenyl]imidazo[1,2-a]pyrazin-6-yl}carbonyl)-1,2,3,4-tetrahydroquinoline], the EC50 is 128 nM.

For `CN(C(=O)c1cn2c(-c3ccc(Cl)cc3)cnc2cn1)c1ccc(F)c(F)c1` [Compound 112, 3-(4-chlorophenyl)-N-(3,4-difluorophenyl)-N-methylimidazo[1,2-a]pyrazine-6-carboxamide], the EC50 stood at 103 nM.
